Source: patent US11174248B2, “Indazolyl-spiro[2.3]hexane-carbonitrile derivatives as LRRK2 inhibitors, pharmaceutical compositions, and uses thereof” (Merck Sharp & Dohme Corp., priority 2017, dated 2021)

The compounds below were run against GST-tagged truncated human mutant G2019S LRRK2 (Homo sapiens (Human), UniProt Q5S007, G2019S) (assay: LRRK2 Km ATP LanthaScreen Assay). Details: 134 μM ATP (Km ATP); fluorescein-labeled LRRKtide substrate; mean IC50 values.
Format: biochemical
Method: Unless otherwise noted, all LRRK2 IC50 data presented in tables refers to the LRRK2 Km ATP LanthaScreen™ Assay that is described in the Biological Assay section.
Biological Assay: LRRK2 Km ATP LanthaScreen™ Assay
The LRRK2 kinase activity reported herein as IC50 values was determined with LanthaScreen™ technology from Life Technologies Corporation (Carlsbad, Calif.) using GST-tagged truncated human mutant G2019S LRRK2 in the presence of the fluorescein-labeled peptide substrate LRRKtide, also from Life Technologies. The data presented for the Km ATP LanthaScreen™ Assay represents mean IC50 values based on several test results and may have reasonable deviations depending on the specific conditions and reagents used. Assays were performed in the presence of 134 μM ATP (Km ATP). Upon completion, the assay was stopped and phosphorylated substrate detected with a terbium (Tb)-labeled anti-pERM antibody (cat. no. PV4898). The compound dose response was prepared by diluting a 10 mM stock of compound to a maximum concentration of 9.99 μM in 100% dimethylsulfoxide followed by custom fold serial dilution in dimethylsulfoxide nine times. Twenty nanoliters of each dilution was spotted via a Labcyte Echo onto a 384-well black-sided plate (Corning 3575) followed by 15 μl of a 1.25 nM enzyme solution in 1× assay buffer (50 mM Tris pH 8.5, 10 mM MgCl2, 0.01% Brij-35, 1 mM EGTA, 2 mM dithiothreitol, 0.05 mM sodium orthovanadate) Following a 15-minute incubation at room temperature, the kinase reaction was started with the addition of 5 μl of 400 nM fluorescein-labeled LRRKtide peptide substrate and 134 μM ATP solution in 1× assay buffer. The reaction was allowed to progress at ambient temperature for 90 minutes. The reaction was then stopped by the addition of 20 μl of TR-FRET Dilution Buffer (Life Technologies, Carlsbad, Calif.) containing 2 nM Tb-labeled anti-phospho LRRKtide antibody and 10 mM EDTA (Life Technologies, Carlsbad, Calif.). After an incubation of 1 hour at room temperature, the plate was read on an EnVision multimode plate reader (Perkin Elmer, Waltham, Mass.) with an excitation wavelength of 337 nm (Laser) and a reading emission at both 520 and 495 nm. Compound IC50s were interpolated from nonlinear regression best fits of the log of the final compound concentration, plotted as a function of the 520/495-nm emission ratio using Activity base. Abase uses a 4 parameter (4P) logistic fit based on the Levenberg-Marquardt algorithm.

Sequence of GST-tagged truncated human mutant G2019S LRRK2 (Q5S007 970-2527 G2019S): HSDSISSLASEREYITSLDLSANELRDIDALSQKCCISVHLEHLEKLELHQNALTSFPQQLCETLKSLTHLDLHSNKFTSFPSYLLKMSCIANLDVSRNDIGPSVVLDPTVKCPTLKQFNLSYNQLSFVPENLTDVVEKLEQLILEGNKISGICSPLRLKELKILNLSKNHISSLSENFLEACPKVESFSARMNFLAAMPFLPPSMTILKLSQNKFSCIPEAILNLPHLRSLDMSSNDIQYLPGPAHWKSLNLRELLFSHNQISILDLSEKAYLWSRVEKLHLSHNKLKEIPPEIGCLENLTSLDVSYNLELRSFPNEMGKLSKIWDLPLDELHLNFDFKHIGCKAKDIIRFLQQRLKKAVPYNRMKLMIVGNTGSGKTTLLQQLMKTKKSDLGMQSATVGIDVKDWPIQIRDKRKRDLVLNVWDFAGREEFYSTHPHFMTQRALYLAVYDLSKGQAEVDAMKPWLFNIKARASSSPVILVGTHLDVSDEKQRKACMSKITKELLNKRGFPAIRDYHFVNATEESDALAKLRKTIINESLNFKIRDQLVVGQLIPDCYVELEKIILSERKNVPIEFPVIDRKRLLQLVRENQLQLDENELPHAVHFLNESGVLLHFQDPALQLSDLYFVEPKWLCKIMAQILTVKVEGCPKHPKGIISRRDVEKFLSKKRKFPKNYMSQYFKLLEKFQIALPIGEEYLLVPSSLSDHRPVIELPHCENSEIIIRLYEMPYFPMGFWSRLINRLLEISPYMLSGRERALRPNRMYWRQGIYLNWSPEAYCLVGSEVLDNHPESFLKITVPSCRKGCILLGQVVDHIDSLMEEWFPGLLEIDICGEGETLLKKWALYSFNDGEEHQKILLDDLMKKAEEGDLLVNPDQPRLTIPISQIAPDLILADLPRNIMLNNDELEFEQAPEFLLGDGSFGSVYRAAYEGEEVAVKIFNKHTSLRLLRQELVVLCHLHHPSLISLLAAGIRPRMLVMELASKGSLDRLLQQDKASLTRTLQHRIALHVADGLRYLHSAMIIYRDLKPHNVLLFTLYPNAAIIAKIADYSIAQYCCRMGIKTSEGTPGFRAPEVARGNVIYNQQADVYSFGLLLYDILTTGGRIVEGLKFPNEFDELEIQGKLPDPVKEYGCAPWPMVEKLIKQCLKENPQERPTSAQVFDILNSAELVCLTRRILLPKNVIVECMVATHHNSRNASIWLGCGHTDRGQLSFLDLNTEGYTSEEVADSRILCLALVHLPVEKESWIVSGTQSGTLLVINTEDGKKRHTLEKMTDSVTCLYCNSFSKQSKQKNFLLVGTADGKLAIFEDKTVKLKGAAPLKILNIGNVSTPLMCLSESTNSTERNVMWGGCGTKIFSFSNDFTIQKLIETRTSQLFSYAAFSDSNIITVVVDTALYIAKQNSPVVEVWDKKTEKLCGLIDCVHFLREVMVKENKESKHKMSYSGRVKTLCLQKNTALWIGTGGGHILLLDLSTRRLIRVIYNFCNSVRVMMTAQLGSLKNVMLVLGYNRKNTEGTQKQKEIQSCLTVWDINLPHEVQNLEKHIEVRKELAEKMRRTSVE

SMILES	IC50 [nM]
CC(C)(O)C1CN(c2cc(-n3ncc4ccc(C5(C#N)CC6(CC6)C5)cc43)ncn2)C1 [Example 24, 5-(1-(6-(3-(2-hydroxypropan-2-yl)azetidin-1-yl)pyrimidin-4-yl)-1H-indazol-6-yl)spiro[2.3]hexane-5-carbonitrile]	2.6
CC1(O)CN(c2cc(-n3ncc4ccc(C5(C#N)CC6(CC6)C5)cc43)ncn2)C1 [Example 25, 5-(1-(6-(3-hydroxy-3-methylazetidin-1-yl)pyrimidin-4-yl)-1H-indazol-6-yl)spiro[2.3]hexane-5-carbonitrile]	2.9
COC1(C)CN(c2cc(-n3ncc4ccc(C5(C#N)CC6(CC6)C5)cc43)ncn2)C1 [Example 26, 5-(1-(6-(3-methoxy-3-methylazetidin-1-yl)pyrimidin-4-yl)-1H-indazol-6-yl)spiro[2.3]hexane-5-carbonitrile]	4.3
N#CC1(c2ccc3cnn(-c4cc(N5CC(O)(C6CC6)C5)ncn4)c3c2)CC2(CC2)C1 [Example 27, 5-(1-(6-(3-cyclopropyl-3-hydroxyazetidin-1-yl)pyrimidin-4-yl)-1H-indazol-6-yl)spiro[2.3]hexane-5-carbonitrile]	7.4
CN1CCOC2(C1)CN(c1cc(-n3ncc4ccc(C5(C#N)CC6(CC6)C5)cc43)ncn1)C2 [Example 28, 5-(1-(6-(8-methyl-5-oxa-2,8-diazaspiro[3.5]nonan-2-yl)pyrimidin-4-yl)-1H-indazol-6-yl)spiro[2.3]hexane-5-carbonitrile]	1.3
CNc1nc(N2CC3(C(C)(C)O)CC2C3)cc(-n2ncc3ccc(C4(C#N)CC5(CC5)C4)cc32)n1 [Example 29, 5-(1-(6-(4-(2-hydroxypropan-2-yl)-2-azabicyclo[2.1.1]hexan-2-yl)-2-(methylamino)pyrimidin-4-yl)-1H-indazol-6-yl)spiro[2.3]hexane-5-carbonitrile]	16.7
COc1nc(N2CC3(C(C)(C)O)CC2C3)cc(-n2ncc3ccc(C4(C#N)CC5(CC5)C4)cc32)n1 [Example 30, 5-(1-(6-(4-(2-hydroxypropan-2-yl)-2-azabicyclo[2.1.1]hexan-2-yl)-2-methoxypyrimidin-4-yl)-1H-indazol-6-yl)spiro[2.3]hexane-5-carbonitrile]	12.3
C[C@H]1CN(c2cc(-n3ncc4ccc(C5(C#N)CC6(CC6)C5)cc43)ccn2)CCN1C1COC1 [Example 31, (S)-5-(1-(2-(3-methyl-4-(oxetan-3-yl)piperazin-1-yl)pyridin-4-yl)-1H-indazol-6-yl)spiro[2.3]hexane-5-carbonitrile]	11.3
N#CC1(c2ccc3cnn(-c4ccnc(N5CC6(CO)CC5C6)c4)c3c2)CC2(CC2)C1 [Example 32, 5-(1-(2-(4-(hydroxymethyl)-2-azabicyclo[2.1.1]hexan-2-yl)pyridin-4-yl)-1H-indazol-6-yl)spiro[2.3]hexane-5-carbonitrile]	10
CC1(O)CC2(CN(c3cc(-n4ncc5ccc(C6(C#N)CC7(CC7)C6)cc54)ncn3)C2)C1 (stereo not drawn) [Example 33, 5-(1-(6-(6-hydroxy-6-methyl-2-azaspiro[3.3]heptan-2-yl)pyrimidin-4-yl)-1H-indazol-6-yl)spiro[2.3]hexane-5-carbonitrile]	1
C[C@H]1CN(c2cc(-n3ncc4ccc(C5(C#N)CC6(CC6)C5)cc43)ncn2)CCO1 [Example 42, (S)-5-(1-(6-(2-methyl-morpholino)pyrimidin-4-yl)-1H-indazol-6-yl)spiro[2.3]hexane-5-carbonitrile]	5.6
CC(C)(O)[C@@H]1CN(c2cc(-n3ncc4ccc(C5(C#N)CC6(CC6)C5)cc43)ncn2)CCO1 [Example 43, (S)-5-(1-(6-(2-(2-hydroxypropan-2-yl)morpholino)pyrimidin-4-yl)-1H-indazol-6-yl)spiro[2.3]hexane-5-carbonitrile]	0.9
N#CC1(c2ccc3cnn(-c4cc(N5CCC(C6COC6)CC5)ncn4)c3c2)CC2(CC2)C1 [Example 44, 5-(1-(6-(4-(oxetan-3-yl)piperidin-1-yl)pyrimidin-4-yl)-1H-indazol-6-yl)spiro[2.3]hexane-5-carbonitrile]	5
N#CC1(c2ccc3cnn(-c4cc(N5CCN6CCOC[C@@H]6C5)ncn4)c3c2)CC2(CC2)C1 [Example 45, (S)-5-(1-(6-(hexahydropyrazino[2,1-c][1,4]oxazin-8(1H)-yl)pyrimidin-4-yl)-1H-indazol-6-yl)spiro[2.3]hexane-5-carbonitrile]	2
N#CC1(c2ccc3cnn(-c4cc(N5CCN6CCOC[C@H]6C5)ncn4)c3c2)CC2(CC2)C1 [Example 46, (R)-5-(1-(6-(hexahydropyrazino[2,1-c][1,4]oxazin-8(1H)-yl)pyrimidin-4-yl)-1H-indazol-6-yl)spiro[2.3]hexane-5-carbonitrile]	7
Cc1nc(N2CCN3CCOC[C@@H]3C2)cc(-n2ncc3ccc(C4(C#N)CC5(CC5)C4)cc32)n1 [Example 47, (S)-5-(1-(6-(hexahydropyrazino[2,1-c][1,4]oxazin-8(1H)-yl)-2-methylpyrimidin-4-yl)-1H-indazol-6-yl)spiro[2.3]hexane-5-carbonitrile]	3.2
Cc1nc(N2CCN3CCOC[C@@H]3C2)cc(-n2ncc3cnc(C4(C#N)CC5(CC5)C4)cc32)n1 [Example 48, (S)-5-(1-(6-(hexahydropyrazino[2,1-c][1,4]oxazin-8(1H)-yl)-2-methylpyrimidin-4-yl)-1H-pyrazolo[4,3-c]pyridin-6-yl)spiro[2.3]hexane-5-carbonitrile]	20.2
N#CC1(c2cc3c(cn2)cnn3-c2cc(N3CCN4CCOC[C@@H]4C3)ncn2)CC2(CC2)C1 [Example 49, (S)-5-(1-(6-(hexahydropyrazino[2,1-c][1,4]oxazin-8(1H)-yl)pyrimidin-4-yl)-1H-pyrazolo[4,3-c]pyridin-6-yl)spiro[2.3]hexane-5-carbonitrile]	8.8
